The values that follow come from patent US8765773B2, “Substituted hydroxamic acids and uses thereof” (Millennium Pharmaceuticals, Inc., priority 2010, dated 2014).

The assay addresses T1, purified human HDAC6 (Homo sapiens, UniProt Q9UBN7).
T1 construct: purchased BPS Bioscience 5006
T1 sequence (Q9UBN7 1-1215): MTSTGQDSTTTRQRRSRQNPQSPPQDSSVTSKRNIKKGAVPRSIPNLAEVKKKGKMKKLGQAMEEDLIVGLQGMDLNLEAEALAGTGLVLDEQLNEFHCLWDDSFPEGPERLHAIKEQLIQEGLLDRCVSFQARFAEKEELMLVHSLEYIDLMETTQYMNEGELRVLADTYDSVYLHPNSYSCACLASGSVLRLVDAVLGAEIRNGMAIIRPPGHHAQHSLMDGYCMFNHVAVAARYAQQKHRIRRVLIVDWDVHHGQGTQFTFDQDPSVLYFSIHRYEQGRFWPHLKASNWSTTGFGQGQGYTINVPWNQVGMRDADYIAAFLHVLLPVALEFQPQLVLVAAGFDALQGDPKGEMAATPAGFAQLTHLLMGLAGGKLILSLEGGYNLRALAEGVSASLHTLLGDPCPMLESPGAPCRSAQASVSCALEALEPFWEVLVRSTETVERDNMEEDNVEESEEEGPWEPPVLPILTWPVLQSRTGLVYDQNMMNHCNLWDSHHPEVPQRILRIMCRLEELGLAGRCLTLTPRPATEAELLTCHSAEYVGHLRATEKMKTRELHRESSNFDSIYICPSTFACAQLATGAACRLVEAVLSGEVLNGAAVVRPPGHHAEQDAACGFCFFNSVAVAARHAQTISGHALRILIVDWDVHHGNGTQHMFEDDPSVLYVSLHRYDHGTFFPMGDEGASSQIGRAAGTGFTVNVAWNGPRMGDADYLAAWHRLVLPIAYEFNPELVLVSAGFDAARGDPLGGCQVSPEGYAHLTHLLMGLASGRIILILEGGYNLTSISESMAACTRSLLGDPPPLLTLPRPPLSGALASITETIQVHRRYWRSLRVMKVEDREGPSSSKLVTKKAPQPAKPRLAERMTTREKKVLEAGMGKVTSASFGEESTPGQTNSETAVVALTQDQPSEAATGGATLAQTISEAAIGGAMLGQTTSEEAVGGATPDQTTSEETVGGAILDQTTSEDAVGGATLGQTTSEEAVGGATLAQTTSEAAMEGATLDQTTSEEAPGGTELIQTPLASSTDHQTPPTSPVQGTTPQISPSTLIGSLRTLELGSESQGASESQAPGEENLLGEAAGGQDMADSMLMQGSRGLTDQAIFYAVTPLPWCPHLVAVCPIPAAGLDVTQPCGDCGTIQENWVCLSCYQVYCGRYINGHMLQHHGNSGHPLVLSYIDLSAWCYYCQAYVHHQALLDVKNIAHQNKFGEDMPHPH
The assay can be described thus: HDAC6 Enzyme Assay. The class given is biochemical. The following applies: read-out: Percent Inhibition; for inhibition at 0.412 µM: compound concentration 0.412 μM; for inhibition at 0.37 µM: compound concentration 0.37 μM. Summed up:
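Purified human HDAC6 incubated 1 h at 30° C with Ac-Arg-Gly-Lys(Ac)-AMC peptide plus compound or DMSO; stopped with trichostatin A. Deacetylated product trypsin-digested, released AMC read by fluorescence (Ex 340/Em 460 nm). Percent inhibition at one concentration or IC50 from curves relative to DMSO controls.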

Consider `Cn1c(=O)[nH]c2cc(C(=O)NO)ccc2c1=O` [Compound I-286, N-hydroxy-3-methyl-2,4-dioxo-1,2,3,4-tetrahydroquinazoline-7-carboxamide], for which the inhibition at 0.412 µM turned out to be 21.2%.

Take `Cn1ccc2ccc(C(=O)NO)cc2c1=O` [Compound I-287, N-hydroxy-2-methyl-1-oxo-1,2-dihydroisoquinoline-7-carboxamide]: the inhibition at 0.412 µM is 67.6%.

For `CC(C)(C)c1ccc(Cn2cnc3ccc(C(=O)NO)cc3c2=O)cc1` [Compound I-288, 3-(4-tert-butylbenzyl)-N-hydroxy-4-oxo-3,4-dihydroquinazoline-6-carboxamide], the inhibition at 0.412 µM stood at 94.9%.

Consider `O=C(NO)c1ccc2ccn(Cc3ccc(-n4cccn4)cc3)c(=O)c2c1` [Compound I-289, N-hydroxy-1-oxo-2-[4-(1H-pyrazol-1-yl)benzyl]-1,2-dihydroisoquinoline-7-carboxamide], for which the inhibition at 0.412 µM was found to be 96.7%.

With `O=C(NO)c1ccc2ccn(Cc3ccc4nonc4c3)c(=O)c2c1` [Compound I-290, 2-(2,1,3-benzoxadiazol-5-ylmethyl)-N-hydroxy-1-oxo-1,2-dihydroisoquinoline-7-carboxamide], the inhibition at 0.412 µM is 98.5%.

On to `O=C(NO)c1ccc2ncn(CCc3cccc(-c4cccc(C(=O)NC5CC5)c4)c3)c(=O)c2c1` [Compound I-291, 3-(2-{3′-[(cyclopropylamino)carbonyl]biphenyl-3-yl}ethyl)-N-hydroxy-4-oxo-3,4-dihydroquinazoline-6-carboxamide], for which the inhibition at 0.37 µM came out at 89.6%.

Take `O=C(NO)c1ccc2c(Br)cn(Cc3ccccc3)c(=O)c2c1` [Compound I-292, 2-benzyl-4-bromo-N-hydroxy-1-oxo-1,2-dihydroisoquinoline-7-carboxamide]: the inhibition at 0.37 µM turned out to be 82.8%.

Consider `O=C(NO)c1ccc2ccn(CCC(c3ccc(Cl)cc3)c3ccc(Cl)cc3)c(=O)c2c1` [Compound I-293, 2-[3,3-bis(4-chlorophenyl)propyl]-N-hydroxy-1-oxo-1,2-dihydroisoquinoline-7-carboxamide], for which the inhibition at 0.37 µM was determined as 91.5%.

`CC(C)NCCn1cnc2ccc(C(=O)NO)cc2c1=O` [Compound I-294, N-hydroxy-3-[2-(isopropylamino)ethyl]-4-oxo-3,4-dihydroquinazoline-6-carboxamide]: the inhibition at 0.37 µM was found to be 56%.

As to `O=C(NO)c1ccc2ncn(CCc3cccc(-c4ccc(C(F)(F)F)cc4)c3)c(=O)c2c1` [Compound I-295, N-hydroxy-4-oxo-3-{2-[4′-(trifluoromethyl)biphenyl-3-yl]ethyl}-3,4-dihydroquinazoline-6-carboxamide], the inhibition at 0.37 µM worked out at 72.5%.

Regarding `Cc1ccccc1-c1cccc(CCn2cnc3ccc(C(=O)NO)cc3c2=O)c1` [Compound I-296, N-hydroxy-3-[2-(2′-methylbiphenyl-3-yl)ethyl]-4-oxo-3,4-dihydroquinazoline-6-carboxamide], the inhibition at 0.37 µM was determined as 94.2%.

Take `CC(C)c1ccc(-c2cccc(CCn3cnc4ccc(C(=O)NO)cc4c3=O)c2)cc1` [Compound I-297, N-hydroxy-3-[2-(4′-isopropylbiphenyl-3-yl)ethyl]-4-oxo-3,4-dihydroquinazoline-6-carboxamide]: the inhibition at 0.37 µM came to 61.5%.

For `O=C(NO)c1ccc2ccn(-c3ccccc3Cl)c(=O)c2c1` [Compound I-298, 2-(2-chlorophenyl)-N-hydroxy-1-oxo-1,2-dihydroisoquinoline-7-carboxamide], the inhibition at 0.37 µM is 94.6%.

For `O=C(NO)c1ccc2ncn(CCc3cccc(-c4ccc(S(=O)(=O)N5CCCCC5)cc4)c3)c(=O)c2c1` [Compound I-299, N-hydroxy-4-oxo-3-{2-[4′-(piperidin-1-ylsulfonyl)biphenyl-3-yl]ethyl}-3,4-dihydroquinazoline-6-carboxamide], the inhibition at 0.37 µM is 90.6%.

As to `O=C(NO)c1ccc2ncn(CCc3cccc(-c4ccc(F)cc4)c3)c(=O)c2c1` [Compound I-300, 3-[2-(4′-fluorobiphenyl-3-yl)ethyl]-N-hydroxy-4-oxo-3,4-dihydroquinazoline-6-carboxamide], the inhibition at 0.37 µM worked out at 91.7%.

Consider `Cc1ccc(-c2cccc(CCn3cnc4ccc(C(=O)NO)cc4c3=O)c2)cc1` [Compound I-301, N-hydroxy-3-[2-(4′-methylbiphenyl-3-yl)ethyl]-4-oxo-3,4-dihydroquinazoline-6-carboxamide], for which the inhibition at 0.37 µM worked out at 88.1%.

With `O=C(NO)c1ccc2ncn(CCc3cccc(-c4cc5ccccc5s4)c3)c(=O)c2c1` [Compound I-302, 3-{2-[3-(1-benzothien-2-yl)phenyl]ethyl}-N-hydroxy-4-oxo-3,4-dihydroquinazoline-6-carboxamide], the inhibition at 0.37 µM was determined as 83.5%.

`COc1ccc(-c2cccc(CCn3cnc4ccc(C(=O)NO)cc4c3=O)c2)cc1` [Compound I-303, N-hydroxy-3-[2-(4′-methoxybiphenyl-3-yl)ethyl]-4-oxo-3,4-dihydroquinazoline-6-carboxamide]: the inhibition at 0.37 µM amounted to 93.3%.

`Cc1cccc(-c2cccc(CCn3cnc4ccc(C(=O)NO)cc4c3=O)c2)c1` [Compound I-304, N-hydroxy-3-[2-(3′-methylbiphenyl-3-yl)ethyl]-4-oxo-3,4-dihydroquinazoline-6-carboxamide]: the inhibition at 0.37 µM stood at 90.9%.

`O=C(NO)c1ccc2ccn(Cc3ccc(-n4cccc4)cc3)c(=O)c2c1` [Compound I-305, N-hydroxy-1-oxo-2-[4-(1H-pyrrol-1-yl)benzyl]-1,2-dihydroisoquinoline-7-carboxamide]: the inhibition at 0.37 µM was found to be 99%.

Take `O=C(NO)c1ccc2ccn(Cc3cccc(-n4cc5ccccc5n4)c3)c(=O)c2c1` [Compound I-308, N-hydroxy-2-[3-(2H-indazol-2-yl)benzyl]-1-oxo-1,2-dihydroisoquinoline-7-carboxamide]: the inhibition at 0.37 µM worked out at 97.9%.

Turning to `CN(C)S(=O)(=O)c1cccc(-c2cccc(CCn3cnc4ccc(C(=O)NO)cc4c3=O)c2)c1` [Compound I-309, 3-(2-{3′-[(dimethylamino)sulfonyl]biphenyl-3-yl}ethyl)-N-hydroxy-4-oxo-3,4-dihydroquinazoline-6-carboxamide], the inhibition at 0.37 µM was 83.8%.

With `O=C(NO)c1ccc2ccn(-c3ccccn3)c(=O)c2c1` [Compound I-310, N-hydroxy-1-oxo-2-pyridin-2-yl-1,2-dihydroisoquinoline-7-carboxamide], the inhibition at 0.37 µM came out at 90.3%.

Regarding `O=C(NO)c1ccc2ncn(CCc3cccc(-c4cccc(C(F)(F)F)c4)c3)c(=O)c2c1` [Compound I-311, N-hydroxy-4-oxo-3-{2-[3′-(trifluoromethyl)biphenyl-3-yl]ethyl}-3,4-dihydroquinazoline-6-carboxamide], the inhibition at 0.37 µM amounted to 91.6%.

Regarding `O=C(NO)c1ccc2ncn(CCc3cccc(-c4cccc(OC(F)(F)F)c4)c3)c(=O)c2c1` [Compound I-312, N-hydroxy-4-oxo-3-{2-[3′-(trifluoromethoxy)biphenyl-3-yl]ethyl}-3,4-dihydroquinazoline-6-carboxamide], the inhibition at 0.37 µM worked out at 76.2%.

In the case of `O=C(NO)c1ccc2ncn(CCc3cccc(-c4c(Cl)cccc4Cl)c3)c(=O)c2c1` [Compound I-313, 3-[2-(2′,6′-dichlorobiphenyl-3-yl)ethyl]-N-hydroxy-4-oxo-3,4-dihydroquinazoline-6-carboxamide], the inhibition at 0.37 µM stood at 73.2%.

With `O=C(NO)c1ccc2ncn(CCc3cccc(-c4ccccc4Cl)c3)c(=O)c2c1` [Compound I-314, 3-[2-(2′-chlorobiphenyl-3-yl)ethyl]-N-hydroxy-4-oxo-3,4-dihydroquinazoline-6-carboxamide], the inhibition at 0.37 µM was found to be 93.5%.

In the case of `CCN1CCC(CCn2ccc3ccc(C(=O)NO)cc3c2=O)CC1` [Compound I-315, 2-[2-(1-ethylpiperidin-4-yl)ethyl]-N-hydroxy-1-oxo-1,2-dihydroisoquinoline-7-carboxamide], the inhibition at 0.37 µM was found to be 90.1%.

Consider `O=C(NO)c1ccc2ncn(CCc3cccc(-c4cccc(Cl)c4)c3)c(=O)c2c1` [Compound I-316, 3-[2-(3′-chlorobiphenyl-3-yl)ethyl]-N-hydroxy-4-oxo-3,4-dihydroquinazoline-6-carboxamide], for which the inhibition at 0.37 µM is 87.7%.

One may read the inhibition as how much of the control response was suppressed.
